Where a name gives a salt, the structure may show the parent alone. Read-outs that look alike come from different tables or passages of the source.
How the values were obtained:
RBL2H3 cells = test: Degranulation assay: β-hexosaminidase release during immune complex mediated degranulation; format: cell-based, rat; details: Assay Protocol B (96 well format); for inhibition at 1 µM: read-out: Degranulation % inhibition at 1 μM; for EC50: read-out: Degranulation EC50
Description: The objective of this assay was to examine by Fluorescence method the effect of compounds on β-hexosaminidase release during immune complex mediated degranulation in RBL2H3 cells. Compounds were tested for their ability to inhibit the ability of this immune complex to mediate β-hexosaminidase release, in an enzyme assay with […] as substrate. […] Emission 460 nm). [table] [table] RBL2H3 cells were maintained in MEM complete media containing 10% FBS at 70%-80% confluence in a mammalian cell culture CO2 incubator with 5% CO2 at 37° C. 2×10^5 cells/well were plated in 1 mL of complete media and incubated for 5 hours for cell attachment. Complete media was replaced with 1 mL of serum free MEM media containing 1.2 μg/mL of anti-DNP rat IgE as sensitizing agent and further incubated overnight with 5% CO2 at 37° C. […] Cells were further stimulated with 5 μg/mL of DNP-BSA for 60 minutes. Plates were centrifuged for 5 minutes at 1000 rpm and 25 μL of culture supernatant was transferred from each assay well into a 96 well black coated plate. 25 μL β-NAG substrate was added to this mixture and incubated at room temperature for 30 minutes. The reaction was terminated with 100 μL of stop solution and fluorescence was monitored. (Excitation 355 nm; Emission 460 nm) See, Sanderson, (2010), Cellular Immunology, 262(1): 28-34 and Silverman, (2006) MCB, 26(5):1826-1838, which are incorporated herein by reference. The % release of β-Hexosaminidase for the test compound was calculated using the following formula: RBL2H3 cells were maintained in MEM complete media containing 10% FBS at 70-80% confluence in a mammalian cell culture CO2 incubator with 5% CO2 at 37° C. 5×10^4 cells/well were plated in 200 μL of complete media containing 0.3 μg/mL of anti-DNP rat IgE as sensitizing agent for 24 hours at 37° C. & 5% CO2. The following day, cells were washed twice with PIPES buffer for 10 minutes at 37° C. and replenished with serum free MEM media. Cells were treated with various concentrations of test compounds (in 0.5% DMSO) for 15 minutes at 37° C. and 5% CO2. The cells were further stimulated with 0.1 μg/mL of DNP-BSA for 45 minutes. The plates were spun for 5 minutes at 2000 rpm and 25 μL of culture supernatant was then transferred from each assay well into a 96 well black coated plate. […] β-NAG substrate was added and incubated at RT for 30 minutes. After incubation with substrate, 150 μL of stop solution was added and fluorescence was monitored. (Excitation 355 nm; Emission 460 nm). See, Yamamoto, JPET, 306(3):1174-1181 (2003) and Taylor, MCB, 15(8): 4149-4157 (1995), which are herein incorporated by reference. Release of β-hexosaminidase during the degranulation process by immune complex mediated FcεRI stimulation is through the SYK pathway. The % inhibition of β-hexosaminidase release by Syk inhibitor gives information with regard to its Syk inhibition potency.

[1] = target: Syk (356-635 amino acids) catalytic domain (Homo sapiens (Human), UniProt P43405); test: Inhibition of enzymatic Syk kinase activity (radiometric); format: biochemical; details: read-out: IC50 Syk
Method in brief: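 Human Syk (356-635) kinase domain (0.035–7.5 ng/reaction) preincubated with compound 30 minutes at room temperature, then reacted with pG4T substrate, 100 μM ATP (stock) and γ-32P-ATP for 10 minutes at 30° C. Reaction stopped with HCl/ATP, spotted on P81 paper, washed and counted by scintillation. Percent inhibition versus no-compound counts.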

JAK2 = JAK2 (Homo sapiens (Human), UniProt O60674); test: Inhibition of enzymatic JAK2 kinase activity (TR-FRET); format: biochemical; details: read-out: IC50 JAK
Method in brief: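 Enzyme preincubated with compound 30 min at RT, then Ulight-poly-GT substrate and ATP added for 60 min at RT. EDTA stop, Eu-antiphosphotyrosine antibody; TR-FRET ratio 665/615 nm (ex 340 nm), blank-corrected; % inhibition versus positive control.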

[2] = Rattus norvegicus, RBL-2H3, 1 μM

JAK2, sequence (O60674 808-1132): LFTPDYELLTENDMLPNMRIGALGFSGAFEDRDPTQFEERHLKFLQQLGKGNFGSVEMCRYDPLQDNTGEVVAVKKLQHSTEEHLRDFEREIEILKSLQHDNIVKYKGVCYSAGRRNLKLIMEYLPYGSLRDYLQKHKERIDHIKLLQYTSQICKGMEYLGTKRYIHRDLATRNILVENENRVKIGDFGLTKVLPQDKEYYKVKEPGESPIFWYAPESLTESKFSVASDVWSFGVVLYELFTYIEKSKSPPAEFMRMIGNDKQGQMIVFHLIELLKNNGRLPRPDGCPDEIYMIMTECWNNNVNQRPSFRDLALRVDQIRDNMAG

Row | SMILES | EC50 (RBL2H3 cells; Rattus norvegicus, RBL-2H3) [nM] | IC50 [1] [nM] | IC50 (JAK2) [nM] | inhibition at 1 µM (RBL2H3 cells; [2]) [%] | also measured
1 | O=c1[nH]ncc2nc(N3CCCCCC3)nc(Nc3ccc(OCCN4CCNCC4)cc3)c12 [Example 89, 2-(azepan-1-yl)-4-((4-(2-(piperazin-1-yl)ethoxy)phenyl)amino)pyrimido[4,5-d]pyridazin-5(6H)-one hydrochloride] |  |  |  | 100 | 
2 | N#CCC1CCN(c2ccc(Nc3nc(N4CCC(CC#N)CC4)nc4cn[nH]c(=O)c34)cn2)CC1 [Example 103, 2-(1-(5-((2-(4-(cyanomethyl)piperidin-1-yl)-5-oxo-5,6-dihydropyrimido[4,5-d]pyridazin-4-yl)amino)pyridin-2-yl)piperidin-4-yl)acetonitrile] | 32 |  |  | 87 | 
3 | CC1CC(C)CN(c2nc(Nc3ccc(N4CCC(CC(=O)O)CC4)cc3)c3c(=O)[nH]ncc3n2)C1 (centres unmarked) [Example 117, 2-(1-(4-((2-(3,5-dimethylpiperidin-1-yl)-5-oxo-5,6-dihydropyrimido[4,5-d]pyridazin-4-yl)amino)phenyl)piperidin-4-yl)acetic acid] | 95 |  |  | 89 | 
4 | O=C(O)CN1CCN(c2ccc(Nc3nc(N4CCCCCC4)nc4cn[nH]c(=O)c34)cc2)CC1 [Example 125, 2-(4-(4-((2-(azepan-1-yl)-5-oxo-5,6-dihydropyrimido[4,5-d]pyridazin-4-yl)amino)phenyl)piperazin-1-yl)acetic acid] | 238 |  |  | 38 | 
5 | O=C(O)C1CC12CCN(c1ccc(Nc3nc(-c4ccc(F)cc4)nc4cn[nH]c(=O)c34)cc1)CC2 (centres unmarked) [Example 133, 6-(4-((2-(4-fluorophenyl)-5-oxo-5,6-dihydropyrimido[4,5-d]pyridazin-4-yl)amino)phenyl)-6-azaspiro[2.5]octane-1-carboxylic acid] | 25 |  |  | 98 | 
6 | CCN1CCN(CCOc2ccc(Nc3nc(N4CCCCCC4)nc4cn[nH]c(=O)c34)cc2)CC1 [Example 151, 2-(azepan-1-yl)-4-((4-(2-(4-ethylpiperazin-1-yl)ethoxy)phenyl)amino) pyrimido[4,5-d]pyridazin-5(6H)-one] | 24 |  |  |  | 
7 | O=c1[nH]ncc2nc(N3CCCCCC3)nc(Nc3ccc(OCCN4CCCNCC4)cc3)c12 [Example 164, 4-((4-(2-(1,4-diazepan-1-yl)ethoxy)phenyl)amino)-2-(azepan-1-yl)pyrimido[4,5-d]pyridazin-5(6H)-one] | 55 |  |  |  | 
8 | CN(c1nc(Nc2ccc(N3CCC4(CC3)CC4C(=O)O)cc2)c2c(=O)[nH]ncc2n1)C1CCCCC1 (centres unmarked) [Example 170, 6-(4-((2-(cyclohexyl(methyl)amino)-5-oxo-5,6-dihydropyrimido[4,5-d]pyridazin-4-yl)amino)phenyl)-6-azaspiro[2.5]octane-1-carboxylic acid] | 107 |  |  | 39 | 
9 | N#CCC1CCN(c2nc(Nc3ccc(CCCN4CCNCC4)cc3)c3c(=O)[nH]ncc3n2)CC1 [Example 174, 2-(1-(5-oxo-4-((4-(3-(piperazin-1-yl)propyl)phenyl)amino)-5,6-dihydropyrimido[4,5-d]pyridazin-2-yl)piperidin-4-yl)acetonitrile] | 15 |  |  | 99 | 
10 | O=c1[nH]ncc2nc(N3CCCCCC3)nc(Nc3ccc(N4CCN(CCO)CC4)cc3)c12 [Example 190, 2-(azepan-1-yl)-4-((4-(4-(2-hydroxyethyl)piperazin-1-yl)phenyl)amino)pyrimido[4,5-d]pyridiazin-5(6H)-one] |  |  |  |  | Degranulation % inhibition at 1 μM (RBL2H3 cells; 1 μM): 83%; EC50 (RBL2H3 cells): 21 nM

Further lines, with some results ahead:

Row | EC50 (RBL2H3 cells; Rattus norvegicus, RBL-2H3) [nM] | IC50 [1] [nM] | IC50 (JAK2) [nM] | SMILES | inhibition at 1 µM (RBL2H3 cells; [2]) [%] | also measured
11 | 20 |  |  | N#CCC1CCN(c2nc(Nc3ccc(N4CCC(F)CC4)cc3)c3c(=O)[nH]ncc3n2)CC1 [Example 290, 2-(1-(4-((4-(4-fluoropiperidin-1-yl)phenyl)amino)-5-oxo-5,6-dihydropyrimido[4,5-d]pyridazin-2-yl)piperidin-4-yl)acetonitrile] | 100 | 
12 |  | < 50 | < 50 | N#CCC1CCN(c2nc(Nc3ccc(CCCO)cc3)c3c(=O)[nH]ncc3n2)CC1 [Example 309, 2-(1-(4-((4-(3-hydroxypropyl)phenyl)amino)-5-oxo-5,6-dihydropyrimido[4,5-d]pyridazin-2-yl)piperidin-4-yl) acetonitrile] |  | 
13 |  | < 50 | < 10 | CC(C)(CO)Oc1ccc(Nc2nc(N3CCCCCC3)nc3cn[nH]c(=O)c23)cc1 [Example 314, 2-(azepan-1-yl)-4-((4-((1-hydroxy-2-methylpropan-2-yl)oxy)phenyl)amino) pyrimido[4,5-d]pyridazin-5(6H)-one] |  | 
14 |  | < 50 | < 10 | O=c1[nH]ncc2nc(N3CCCCCC3)nc(Nc3ccc(CCO)cc3)c12 [Example 322, 2-(azepan-1-yl)-4-((4-(2-hydroxyethyl)phenyl)amino)pyrimido[4,5-d]pyridazin-5(6H)-one] |  | 
15 |  | < 50 | < 50 | N#CCC1CCN(c2nc(Nc3ccc(CCO)cc3)c3c(=O)[nH]ncc3n2)CC1 [Example 323, 2-(1-(4-((4-(2-hydroxyethyl)phenyl)amino)-5-oxo-5,6-dihydropyrimido[4,5-d]pyridazin-2-yl)piperidin-4-yl) acetonitrile] |  | 
16 |  | < 50 | < 50 | COCCOc1ccc(Nc2nc(N3CCCCCC3)nc3cn[nH]c(=O)c23)cc1 [Example 324, 2-(azepan-1-yl)-4-((4-(2-methoxyethoxy)phenyl)amino)pyrimido[4,5-d]pyridazin-5(6H)-one] |  | 
17 |  | < 50 | > 100 | O=c1[nH]ncc2nc(N3CCCCCC3)nc(Nc3ccc(CO)cc3)c12 [Example 331, 2-(azepan-1-yl)-4-((4-(hydroxymethyl)phenyl)amino)pyrimido[4,5-d]pyridazin-5(6H)-one] |  | 
18 |  | < 50 | < 10 | CS(=O)(=O)c1ccc(Nc2nc(N3CCCCCC3)nc3cn[nH]c(=O)c23)cc1 [Example 334, 2-(azepan-1-yl)-4-((4-(methylsulfonyl)phenyl)amino)pyrimido[4,5-d]pyridazin-5(6H)-one] |  | 
19 |  | < 50 | < 50 | N#CCC1CCN(c2nc(Nc3ccc4[nH]nnc4c3)c3c(=O)[nH]ncc3n2)CC1 [Example 335, 2-(1-(4-((1H-benzo[d][1,2,3]triazol-5-yl)amino)-5-oxo-5,6-dihydropyrimido[4,5-d]pyridazin-2-yl)piperidin-4-yl) acetonitrile] |  | 
20 |  | < 50 | < 50 | N#CCC1CCN(c2nc(Nc3ccc4[nH]c(=O)[nH]c4c3)c3c(=O)[nH]ncc3n2)CC1 [Example 336, 2-(1-(5-oxo-4-((2-oxo-2,3-dihydro-1H-benzo[d]imidazol-5-yl)amino)-5,6-dihydropyrimido[4,5-d]pyridazin-2-yl)piperidin-4-yl)acetonitrile] |  | 
21 |  | < 50 | < 50 | N#CCC1CCN(c2nc(Nc3ccc(CCCF)cc3)c3c(=O)[nH]ncc3n2)CC1 [Example 337, 2-(1-(4-((4-(3-fluoropropyl)phenyl)amino)-5-oxo-5,6-dihydropyrimido[4,5-d]pyridazin-2-yl)piperidin-4-yl) acetonitrile] |  | 
22 |  | < 100 | > 100 | N#CCC1CCN(c2nc(Nc3ccc(OC(F)F)cc3)c3c(=O)[nH]ncc3n2)CC1 [Example 338, 2-(1-(4-((4-(difluoromethoxy)phenyl)amino)-5-oxo-5,6-dihydropyrimido[4,5-d]pyridazin-2-yl)piperidin-4-yl) acetonitrile] |  | 

Reference: patent US10183944B2 (Asana Biosciences, LLC, priority 2011, dated 2019)
